# How the values were obtained:
# [1] = target: binding of CD300a-Fc to DV2 JAM particles (Homo sapiens, UniProt Q9UGN4); experiment: ELISA: binding of CD300a-Fc to DV2 JAM coated particles in the presence of inhibitor; settings: for inhibition of the binding of CD300a to DV: ANX5 0.31-20 μg/ml or Duramycin 0.625-5 μM added before CD300a-Fc (2 μg/ml); for effect on CD300a-Fc binding to DV (in words): rat mAb 0.625 to 20 μg/ml, EDTA 1.25 to 25 mM mixed with Fc, ANX5, Duramycin added before Fc
# Description: Graph representing the amount of CD300a-Fc bound by DV2 JAM coated particles in the presence of anti-CD300Ab. Serial dilutions of a rat mAb to CD300a or its IgG2a isotype were mixed with CD300a-Fc before incubation with DV2 JAM coated particles. Residual bound Fc was detected with a HRP conjugated rabbit pAb to human IgG (1/1000) and OPD substrat. Data are represented as mean±SD of three independent experiments performed in duplicates.
# (§1) Bar chart representing the amount of TIM3-Fc, CD300a-Fc or DV-SIGN-Fc bound to DV2 JAM particles in the presence of different concentration of Annexin V, a PtdSer specific ligand. DV2 JAM particles were coated in 96 well plates and incubated for one hour at +4° C. with various concentrations of the PtdSer specific ligand Annexin V before the addition of human IgG1-Fc, TIM3-Fc, CD300a-Fc or DV-SIGN-Fc (2 μg/ml). Bound Fcs were detected with a HRP conjugated rabbit pAb to human IgG (1/1000) and OPD substrate. Data are represented as mean±SD of three independent experiments performed in duplicates.
# Bar chart representing the amount of CD300a-Fc or DV-SIGN-Fc bound to DV2 JAM particles in the presence of different concentration of Duramycin. DV2 JAM particles were coated in 96 well plates and incubated for one hour at +4° C. with various concentrations of the PtdEth specific ligand Duramycin before the addition of human IgG1-Fc, TIM3-Fc, CD300a-Fc or DV-SIGN-Fc (2 μg/ml). Bound Fcs were detected with a HRP conjugated rabbit pAb to human IgG (1/1000) and OPD substrate. Data are represented as mean±SD of three independent experiments performed in duplicates.
# Bar chart representing the amount of CD300a-Fc bound by DV2 JAM coated particles in the presence of EDTA. Two fold serial dilutions of EDTA (1-25 mM) were mixed with CD300a-Fc before incubation with DV2 JAM coated particles. Bound Fcs were detected with a HRP conjugated rabbit pAb to human IgG (1/1000) and OPD substrate. Data shown are mean±SD of duplicates wells and representative of three independent experiments.
# All ELISA were performed on Maxisorp 96 well plates (Nunc). PBS diluted DV particles (1.106 FIU) were coated overnight at 4° C. Coated 3-sn-phosphatidyl-Choline, -Ethanolamine or -Serine (10 μg/well, Sigma, Lyon, France) were diluted in ethanol and the wells air dried. Wells were saturated with TBS 1×, 10 mM CaCl2, 2% BSA for 2 h at 37° C. All dilutions were in TBS 1×, 10 mM CaCl2, washes in TBS 1×, 10 mM CaCl2, 0.5% Tween 20, and incubations, 1 h at 4° C. Annexin V or Duramycin were added previously to Fc chimera while EDTA was mixed with Fcs′. All Fcs' were 2 μg/ml. Bound Fcs' were detected with a pAb rabbit anti-human IgG-HRP and OPD substrate.
# [2] = test system: binding of DC-SIGN-Fc to DV2 JAM particles; set-up: species or system human; settings: DV2 JAM coated particles; ANX5 0.31-20 μg/ml, Duramycin 0.625-5 μM, EDTA 1.25 to 25 mM
# Description: All ELISA were performed on Maxisorp 96 well plates (Nunc). PBS diluted DV particles (1.106 FIU) were coated overnight at 4° C. […] Wells were saturated with TBS 1×, 10 mM CaCl2, 2% BSA for 2 h at 37° C. All dilutions were in TBS 1×, 10 mM CaCl2, washes in TBS 1×, 10 mM CaCl2, 0.5% Tween 20, and incubations, 1 h at 4° C. Annexin V or Duramycin were added previously to Fc chimera while EDTA was mixed with Fcs′. All Fcs' were 2 μg/ml. Bound Fcs' were detected with a pAb rabbit anti-human IgG-HRP and OPD substrate.
# [3] = test system: binding of TIM3-Fc to DV2 JAM particles; experiment: ELISA: binding of TIM3-Fc to DV2 JAM coated particles in the presence of Annexin V; set-up: species or system human; settings: ANX5 0.31-20 μg/ml, TIM3-Fc 2 μg/ml
# Description: as §1
# To identify whether CD300a recognized these phospholipids at the surface of virions, DV2 JAM coated particles were challenged with serially diluted concentrations of the PtdSer specific ligand AnnexinV (ANX5) (0.31-20 μg/ml, FIG. 14) or the PtdEth specific ligand Duramycin (0.625-5 μM, FIG. 15) before the addition of Fc coupled molecules.
# Sequence of binding of CD300a-Fc to DV2 JAM particles (Q9UGN4 with tags, fused parts or gaps limits assumed): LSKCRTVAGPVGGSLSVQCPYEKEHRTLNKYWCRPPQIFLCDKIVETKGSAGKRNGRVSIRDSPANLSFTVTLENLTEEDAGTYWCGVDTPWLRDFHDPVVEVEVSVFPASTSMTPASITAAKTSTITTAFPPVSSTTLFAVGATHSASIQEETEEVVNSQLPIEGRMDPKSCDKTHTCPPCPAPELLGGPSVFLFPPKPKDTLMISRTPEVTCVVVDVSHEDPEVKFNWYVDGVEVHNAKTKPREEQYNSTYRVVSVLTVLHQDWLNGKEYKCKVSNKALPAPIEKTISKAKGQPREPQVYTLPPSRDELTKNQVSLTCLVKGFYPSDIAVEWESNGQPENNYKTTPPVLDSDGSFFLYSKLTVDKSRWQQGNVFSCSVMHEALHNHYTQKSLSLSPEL
Substance,inhibition of the binding of CD300a to DV [1],effect on CD300a-Fc binding to DV (in words) [1],effect on DV/DC-SIGN-Fc binding (in words) [2],binding of TIM3-Fc to DV blocked [3]
Annexin V [ANX5],up to 35%,inhibited in a concentration dependent manner,left unchanged,up to 60%
Duramycin [reference compound],up to 98%,inhibited in a concentration dependent manner,left unchanged,–

# From US20170000849A1, “CD300A RECEPTORS AS VIRUS ENTRY COFACTORS” (INSTITUT NATIONAL DE LA SANTE ET DE LA RECHERCHE MEDICALE …, priority 2013, published 2017)
